In PubChem BioAssay AID248 (DTP/NCI, 2004):
Where “and” joins values, the source holds several entries; their conditions need not be identical. Equal entries are not always repeated. Toxic doses and inconclusive results are not listed. No stated cut-off is given here; in the data, active means T/C of 150% or more; inactive means T/C below 125%.

System: L1210 leukemia ip in BDF1 mice, survival T/C
Assay: NCI In Vivo Anticancer Drug Screen. Data for tumor model L1210 Leukemia (intraperitoneal) in B6D2F1 (BDF1) mice
Details: endpoint: mean survival time, higher = longer survival
Outline: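 Each compound was tested against a transplantable tumor grown in mice. The endpoint was survival, with treated animals benchmarked against vehicle controls as a simple ratio.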

[1] = dose: 100.0 mg/kg/injection, schedule: Q04DX002 (ip), vehicle: saline with Tween-80
[2] = dose: 200.0 mg/kg/injection, schedule: Q04DX002 (ip), vehicle: saline with Tween-80
[3] = dose: 12.5 mg/kg/injection, schedule: Q01DX009 (ip), vehicle: Klucel (hydroxypropylcellulose) (HPC)
[4] = dose: 25.0 mg/kg/injection, schedule: Q01DX009 (ip), vehicle: Klucel (hydroxypropylcellulose) (HPC)
[5] = dose: 25.0 mg/kg/injection, schedule: Q04DX003 (ip), vehicle: Klucel (hydroxypropylcellulose) (HPC)
[6] = dose: 50.0 mg/kg/injection, schedule: Q01DX009 (ip), vehicle: Klucel (hydroxypropylcellulose) (HPC)
[7] = dose: 50.0 mg/kg/injection, schedule: Q04DX003 (ip), vehicle: Klucel (hydroxypropylcellulose) (HPC)
[8] = dose: 100.0 mg/kg/injection, schedule: Q01DX001 (ip), vehicle: carboxymethylcellulose (CMC)
[9] = dose: 100.0 mg/kg/injection, schedule: Q04DX003 (ip), vehicle: Klucel (hydroxypropylcellulose) (HPC)

Measured: T/C

Cc1ccc(N=Nc2ccc(C)cc2NC(=O)Nc2cc(C)ccc2C)cc1
inactive: dose: 100.0 mg/kg/injection, schedule: Q01DX001 (ip), vehicle: saline with Tween-80 102 % of control | dose: 100.0 mg/kg/injection, schedule: Q01DX009 (ip), vehicle: saline with Tween-80 98 % of control | [1] 87 % of control and 89 % of control | dose: 200.0 mg/kg/injection, schedule: Q01DX001 (ip), vehicle: saline with Tween-80 109 % of control | dose: 200.0 mg/kg/injection, schedule: Q01DX009 (ip), vehicle: saline with Tween-80 106 % of control | [2] 91 % of control | dose: 400.0 mg/kg/injection, schedule: Q01DX001 (ip), vehicle: saline with Tween-80 90 % of control | dose: 400.0 mg/kg/injection, schedule: Q01DX009 (ip), vehicle: saline with Tween-80 102 % of control | dose: 400.0 mg/kg/injection, schedule: Q04DX002 (ip), vehicle: saline with Tween-80 95 % of control and 89 % of control

O=C1OC2CC3CC1C2C3 (stereo unspecified)
inactive: dose: 5.0 mg/kg/injection, schedule: Q01DX001 (ip), vehicle: other 91 % of control | dose: 10.0 mg/kg/injection, schedule: Q01DX001 (ip), vehicle: other 91 % of control | dose: 10.0 mg/kg/injection, schedule: Q01DX001 (ip), vehicle: saline 101 % of control | [3] 98 % of control | dose: 20.0 mg/kg/injection, schedule: Q01DX001 (ip), vehicle: other 95 % of control | dose: 20.0 mg/kg/injection, schedule: Q01DX001 (ip), vehicle: saline 105 % of control | [4] 96 % of control | [5] 95 % of control | dose: 40.0 mg/kg/injection, schedule: Q01DX001 (ip), vehicle: other 94 % of control | dose: 40.0 mg/kg/injection, schedule: Q01DX001 (ip), vehicle: saline 99 % of control | dose: 50.0 mg/kg/injection, schedule: Q01DX001 (ip), vehicle: carboxymethylcellulose (CMC) 108 % of control | [6] 88 % of control | [7] 88 % of control | dose: 75.0 mg/kg/injection, schedule: Q01DX001 (ip), vehicle: acetone 97 % of control | [8] 108 % of control

O=C(O/C(=N\N1N=NC(c2ccccc2)C1c1ccccc1)c1ccccc1)c1ccccc1 (stereo unspecified)
inactive: [8] 87 % of control | dose: 200.0 mg/kg/injection, schedule: Q01DX001 (ip), vehicle: carboxymethylcellulose (CMC) 89 % of control | dose: 400.0 mg/kg/injection, schedule: Q01DX001 (ip), vehicle: carboxymethylcellulose (CMC) 89 % of control

CC(=O)Cc1cc(C)nc(/N=C(\N)N2CCOCC2)n1
inactive: dose: 100.0 mg/kg/injection, schedule: Q04DX002 (ip), vehicle: Klucel (hydroxypropylcellulose) (HPC) 100 % of control | dose: 200.0 mg/kg/injection, schedule: Q04DX002 (ip), vehicle: Klucel (hydroxypropylcellulose) (HPC) 92 % of control | dose: 400.0 mg/kg/injection, schedule: Q04DX002 (ip), vehicle: Klucel (hydroxypropylcellulose) (HPC) 88 % of control

CCP(CC)c1ccccc1
inactive: dose: 100.0 mg/kg/injection, schedule: Q01DX009 (sc), vehicle: olive oil, sesame oil, peanut oil 100 % of control | dose: 100.0 mg/kg/injection, schedule: Q04DX003 (sc), vehicle: olive oil, sesame oil, peanut oil 98 % of control | dose: 200.0 mg/kg/injection, schedule: Q01DX009 (sc), vehicle: olive oil, sesame oil, peanut oil 102 % of control | dose: 200.0 mg/kg/injection, schedule: Q04DX003 (sc), vehicle: olive oil, sesame oil, peanut oil 96 % of control | dose: 400.0 mg/kg/injection, schedule: Q01DX009 (sc), vehicle: olive oil, sesame oil, peanut oil 107 % of control | dose: 400.0 mg/kg/injection, schedule: Q04DX003 (sc), vehicle: olive oil, sesame oil, peanut oil 98 % of control

COc1ccc(NC(=O)Nc2ccc(C)c(C)c2)cc1
inactive: dose: 100.0 mg/kg/injection, schedule: Q01DX009 (ip), vehicle: Klucel (hydroxypropylcellulose) (HPC) 92 % of control | [9] 97 % of control | dose: 200.0 mg/kg/injection, schedule: Q01DX009 (ip), vehicle: Klucel (hydroxypropylcellulose) (HPC) 91 % of control | dose: 200.0 mg/kg/injection, schedule: Q04DX003 (ip), vehicle: Klucel (hydroxypropylcellulose) (HPC) 103 % of control | dose: 400.0 mg/kg/injection, schedule: Q01DX009 (ip), vehicle: Klucel (hydroxypropylcellulose) (HPC) 91 % of control | dose: 400.0 mg/kg/injection, schedule: Q04DX003 (ip), vehicle: Klucel (hydroxypropylcellulose) (HPC) 95 % of control

COc1cc2c(c3ccccc13)CCCC2=O
inactive: dose: 100.0 mg/kg/injection, schedule: Q04DX003 (ip), vehicle: saline with Tween-80 103 % of control | dose: 200.0 mg/kg/injection, schedule: Q04DX003 (ip), vehicle: saline with Tween-80 93 % of control | dose: 400.0 mg/kg/injection, schedule: Q04DX003 (ip), vehicle: saline with Tween-80 92 % of control

C=CC1(C)C=C2CCC3C(C)(C(=O)O)CCCC3(C)C2CC1 (stereo unspecified)
inactive: [1] 106 % of control | [2] 95 % of control

CNC(=S)N/N=C(/C)CCc1c(C)nn(C(=S)NC)c1C
inactive: dose: 5.0 mg/kg/injection, schedule: Q01DX001 (ip), vehicle: carboxymethylcellulose (CMC) 94 % of control | dose: 10.0 mg/kg/injection, schedule: Q01DX001 (ip), vehicle: carboxymethylcellulose (CMC) 91 % of control | [3] 103 % of control | dose: 20.0 mg/kg/injection, schedule: Q01DX001 (ip), vehicle: carboxymethylcellulose (CMC) 89 % of control | [4] 100 % of control | [5] 106 % of control | dose: 40.0 mg/kg/injection, schedule: Q01DX001 (ip), vehicle: carboxymethylcellulose (CMC) 89 % of control | [6] 92 % of control | [7] 100 % of control | dose: 80.0 mg/kg/injection, schedule: Q01DX001 (ip), vehicle: carboxymethylcellulose (CMC) 96 % of control | [9] 92 % of control

COc1ccc(/C(C#N)=C/c2ccncc2)cc1OC
inactive: dose: 100.0 mg/kg/injection, schedule: Q01DX001 (ip), vehicle: other 105 % of control | dose: 200.0 mg/kg/injection, schedule: Q01DX001 (ip), vehicle: other 94 % of control | dose: 400.0 mg/kg/injection, schedule: Q01DX001 (ip), vehicle: other 97 % of control
